Laboratory results as given in US20220098146A1, “REVERSIBLE IMINE UV-ABSORBERS” (The United States of America, as represented by the …, priority 2020, published 2022).
In brackets after ≈: the same amount, converted by molar mass.

Assays:
Silver ide = conditions: cited from earlier work
Rat = conditions: cited from earlier work
Fathead minnow = conditions: cited from earlier work
[1] = in vitro SPF and critical wavelength by UV spectroscopy and Mansur equation; format: physicochemical
Method: General procedure for determining in vitro SPF and critical wavelength: This method was adapted from Dutra, et al. (Dutra, E. A., et al., Brazilian Journal of Pharmaceutical Sciences, 3: 381-385 (2004)). First, 1.0 gram of sunscreen was placed in 100 mL flask and filled to volume with ethanol. The solution was mixed and filtered through cotton. 1.0 mL of the filtered solution was added to a 50 mL volumetric flask and the flask was filled to volume with ethanol. This final solution (˜0.02% of initial sunscreen) was placed in a 1 cm polystyrene cuvette and UV/Vis spectrum was recorded from 290 to 400 nm, every 5 nm, using a UV/Vis spectrophotometer (Molecular Devices Spectramax M2 UV-Vis Spectrophotometer) with ethanol as a reference . Next, the Mansur equation was applied (Mansur, J. S., et al., An Bras Dermatol., 61: 121-124 (1986)):
where EE (λ)=erythemal effect spectrum; I(λ)=solar intensity spectrum; abs (λ)=absorbance of sunscreen product; CF—correction factor (=10). The values of EE×I are constants determined by Sayre et al. (Photochemistry and Photobiology, 29(3): 559-566 (1979)) so that a standard sunscreen formulation containing 8% homosalate presents an SPF value of 4. The critical wavelength was determined as the wavelength at which 90% of the total absorbance from 290-400 nm occurred. […]

[2] = test system: skin of the intrascapular regions of the back; experiment: Human repeat insult patch testing (RIPT) for skin irritation and skin sensitization; format: in vivo
Method: S2: Repeat Insult Patch Testing (RIPT) Procedure and Results: Human repeat insult patch testing for skin irritation and skin sensitization evaluations, including standard patient consent procedures and oversight, which were obtained after the nature and possible consequences of the study were explained, were conducted by BioScreen Testing Services, Inc. (Torrance, Calif.). Fifty-two volunteers were recruited, provided informed consent prior to initiating, and completed the study (ages 20-59, 10 male, 42 female, all with Fitzpatrick Skin Type 3—burn moderately, tan progressively). Approximately 0.02-0.05 mL of commercial formula (Daily Shower spray cleaner containing 0.2 or 1.0% cuminaldehyde aminoguanidine (CuminAG), pH 5.5-5.9; diluted 3% in DI water) was dispensed on a 7.5 mm paper disk or Rayon/polypropylene patch, which were then affixed to the skin of the intrascapular regions of the back. Subjects were instructed not to wet or expose the test area to sunlight. Patches were kept in place for 48 h after the first application, and 24 h after subsequent applications. This procedure was repeated until nine consecutive 24 h exposures had been made three times a week for three consecutive weeks. Test sites were evaluated by a trained laboratory personnel before each reapplication. After a 10-14 day rest period, a challenge dose was applied once to a previously unexposed test site, which was evaluated by a trained personnel after 48 and 96 h. The International Contact Dermatitis Research Group scoring scale was used: 0=no reaction, 1=erythema throughout at least ¾ of patch area, 2=erythema and induration throughout at least ¾ of patch area, 3=erythema, induration and vesicles, 4=erythema, induration and bullae.

[3] = Calculation of skin permeation coefficient using Modified Potts and Guy Model; conditions: ratio of calculated skin permeation coefficient to that of octinoxate
Text: S1: Calculation of Skin Permeation using Modified Potts and Guy Model: The Modified Potts and Guy Model is a validated method for calculating the skin permeation coefficient (Kp) of a compound in cm/hr (Wilschut et al. 1995; Guy and Potts 1993). It relies on two inputs—the octanol-water partition coefficient, (Kow, indicative of hydrophobicity), and the molecular weight of the compound as follows:
Using the Modified Potts and Guy Model, we calculated the skin permeation coefficient (Kp) of aminoguanidine and aldehyde subcomponents. This scenario represents the skin permeation of our compounds after dissociation. In order to probe skin permeation of the assembled guanyl hydrazones, which don't have published Kow's, we calculated Kp's of structurally similar molecules, robenidine and guanabenz. This scenario represents the application of our UV-absorbers directly to the skin via topical products. Lastly, we calculated the Kp of octinoxate for comparison. Based on these theoretical values, our compounds should have a much lower skin permeation potential than octinoxate and other commercial UV-absorbers.

[4] = UV absorbance spectroscopy versus subcomponents; format: physicochemical; conditions: versus diaminoguanidine and cinnamaldehyde; UVB and UVA regions
Text: We determined the UV absorbing capacity of guanyl hydrazones in comparison to their aminoguanidine and aldehyde subcomponents. We prepared cinnamaldehyde diaminoguanidine (CinDAG) by reacting its subcomponents, diaminoguanidine and cinnamaldehyde, in a molar ratio of 1:2.

[5] = film leaching in DI or sea water with anion pairing; format: physicochemical
Method: General protocol to assess film leaching: To a polyethylene square (1 cm by 1 cm, cut from a Ziploc® bag) 10 μL of a concentrated solution (˜5 wt % in EtOH) of imine was applied and allowed to dry at room temperature (10-20 min) before a concentrated solution of the anion (e.g., sodium lauryl sulfate, sodium cocoyl glutamate, sodium carbonate) to be tested (˜5 wt %) was co-applied and again allowed to dry on the film surface. The film sample was placed inside a 1.5 mL plastic tube containing 1 mL of DI or sea water (sourced from San Francisco Bay, Albany, Calif.) and after a set time (10 min), analyzed for the presence of soluble imine, which was quantified as a percentage of total sample that was originally present on the film (FIG. 6).
As an additional feature, reversible UV-absorbers (e.g., aminoguanidine-aldehyde condensation products) can be paired with anions (e.g., that associate with the cation at typical use levels, e.g., 0.1-10 wt %) to manipulate solubility characteristics. This can greatly reduce water solubility to produce a waterproof sunscreen without relying on increased hydrophobicity of the active agent which is related to increased skin penetration (Wilschut, A., et al., Chemosphere, 30: 1275-1296 (1995); Guy, R. H., and R. O. Potts. American Journal of Industrial Medicine, 23(5): 711-719 (1993))).

Compound: COc1ccc(C=O)cc1 [Anisaldehyde]
- LC50 (mg/L) Fish (Silver ide): 215 mg/L (≈ 1580 µM)
- LD50 (mg/kg) Rat, oral (Rat): 1510 mg/kg

Compound: O=Cc1ccccc1 [Benzaldehyde]
- LD50 (mg/kg) Rat, oral (Rat): 1300 mg/kg
- LC50 (mg/L) Fish (Fathead minnow): 12.4 mg/L (≈ 117 µM)

Compound: NC(N)=NN=CC=Cc1ccccc1 [CinAG, cinnamaldehyde aminoguanidine]
- in vitro SPF improvement over octinoxate ([1]; concentration of 1% in formula): 155%

Compound: O=CC=Cc1ccccc1 [Cinnamaldehyde]
- LD50 (mg/kg) Rat, oral (Rat): 3350 mg/kg
- LC50 (mg/L) Fish (Fathead minnow): 105.8 mg/L (≈ 801 µM)

Compound: CC(C)c1ccc(C=NN=C(N)N)cc1 [CuminAG, cuminaldehyde aminoguanidine]
- adverse reactions in RIPT ([2]; Daily Shower spray cleaner containing 0.2 or 1.0% CuminAG, pH 5.5-5.9, diluted 3% in DI water, 52 volunteers, induction and challenge): no adverse reactions of any kind

Compound: CC(C)c1ccc(C=O)cc1 [Cuminaldehyde]
- LD50 (mg/kg) Rat, oral (Rat): 1390 mg/kg
- LC50 (mg/L) Fish (Fathead minnow): 6.62 mg/L (≈ 44.7 µM)

Compound: N/N=C(\N)NN [Diaminoguanidine]
- Kp/Kp octinoxate [3]: 0.0001

Compound: CCCCC(CC)COC(=O)C=Cc1ccc(OC)cc1 (stereo not drawn) [Octinoxate, reference compound]
- Kp/Kp octinoxate [3]: 1.0000

Compound: CCCCCCCCCCCCOS(=O)(=O)[O-].[Na+] [sodium lauryl sulfate]
- subjects with Grade 1 reaction in RIPT ([2]; positive control, 2.0% solution, ICDRG scale, 1=erythema throughout at least 3/4 of patch area): Four
- subjects with Grade 2 reaction in RIPT ([2]; positive control, 2.0% solution, ICDRG scale, 2=erythema and induration throughout at least 3/4 of patch area): two

Compound: cinnamaldehyde diaminoguanidine [CinDAG]
- critical wavelength ([1]; wavelength at which 90% of total absorbance from 290-400 nm occurred): high critical wavelength
- UV-absorbing capacity compared to subcomponents [4]: significantly more UV-absorbing capacity than its subcomponents
- water resistance of the blend ([5]; blend with sodium cocoyl glutamate): comparable to that of octinoxate
- solubility (leaching off film) on anion pairing ([5]; sodium cocoyl glutamate added, fresh and salt water, 10 min): decreased solubility in both fresh and salt water
